# From US6613322B2, “Method for treating a subject suffering from conditions associated with an extracellular zinc sphingomyelinase” (The Trustees of Columbia University in the City of New York, priority 1997, dated 2003)
# T1: S-SMase (Homo sapiens, UniProt P17405)
# T1 sequence (P17405 47-631): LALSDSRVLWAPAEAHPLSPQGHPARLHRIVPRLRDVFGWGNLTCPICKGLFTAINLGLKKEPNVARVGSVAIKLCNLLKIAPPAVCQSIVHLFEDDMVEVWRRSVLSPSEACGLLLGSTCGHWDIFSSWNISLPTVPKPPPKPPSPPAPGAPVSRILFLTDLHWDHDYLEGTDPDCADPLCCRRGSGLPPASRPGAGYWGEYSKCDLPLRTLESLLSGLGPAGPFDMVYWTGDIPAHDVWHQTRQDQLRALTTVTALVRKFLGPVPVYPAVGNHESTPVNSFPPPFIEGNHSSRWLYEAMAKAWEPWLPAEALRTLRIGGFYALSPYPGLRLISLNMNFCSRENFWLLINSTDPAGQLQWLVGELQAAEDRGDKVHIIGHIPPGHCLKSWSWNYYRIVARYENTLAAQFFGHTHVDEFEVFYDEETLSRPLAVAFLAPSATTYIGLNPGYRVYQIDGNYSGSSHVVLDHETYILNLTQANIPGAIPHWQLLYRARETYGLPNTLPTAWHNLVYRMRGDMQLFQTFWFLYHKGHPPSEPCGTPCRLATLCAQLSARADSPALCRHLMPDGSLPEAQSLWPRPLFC
# T2: S-SMase (Mus musculus, UniProt Q04519)
# T2 construct: endogenous in cells; host or cells: J774.A1 macrophages, serum-free conditioned medium
# T2 sequence (Q04519 45-627): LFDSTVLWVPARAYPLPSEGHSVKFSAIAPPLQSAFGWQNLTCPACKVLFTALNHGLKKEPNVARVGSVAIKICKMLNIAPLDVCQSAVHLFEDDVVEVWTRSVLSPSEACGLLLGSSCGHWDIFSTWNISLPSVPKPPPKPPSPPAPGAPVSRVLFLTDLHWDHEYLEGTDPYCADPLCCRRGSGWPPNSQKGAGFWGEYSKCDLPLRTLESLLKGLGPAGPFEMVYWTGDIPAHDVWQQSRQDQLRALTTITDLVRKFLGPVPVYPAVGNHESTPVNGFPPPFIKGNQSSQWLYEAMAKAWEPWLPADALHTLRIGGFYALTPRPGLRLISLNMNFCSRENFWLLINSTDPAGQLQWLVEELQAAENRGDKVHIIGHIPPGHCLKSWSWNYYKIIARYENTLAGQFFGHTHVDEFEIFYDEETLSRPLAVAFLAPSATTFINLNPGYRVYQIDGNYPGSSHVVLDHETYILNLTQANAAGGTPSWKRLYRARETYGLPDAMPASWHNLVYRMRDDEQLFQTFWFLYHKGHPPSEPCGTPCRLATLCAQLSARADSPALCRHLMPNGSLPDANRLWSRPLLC
# T3: L-SMase (Mus musculus, UniProt Q04519)
# T3 construct: endogenous in cells; host or cells: J774.A1 macrophages, sonicated cell homogenate
# T3 sequence (Q04519 45-627): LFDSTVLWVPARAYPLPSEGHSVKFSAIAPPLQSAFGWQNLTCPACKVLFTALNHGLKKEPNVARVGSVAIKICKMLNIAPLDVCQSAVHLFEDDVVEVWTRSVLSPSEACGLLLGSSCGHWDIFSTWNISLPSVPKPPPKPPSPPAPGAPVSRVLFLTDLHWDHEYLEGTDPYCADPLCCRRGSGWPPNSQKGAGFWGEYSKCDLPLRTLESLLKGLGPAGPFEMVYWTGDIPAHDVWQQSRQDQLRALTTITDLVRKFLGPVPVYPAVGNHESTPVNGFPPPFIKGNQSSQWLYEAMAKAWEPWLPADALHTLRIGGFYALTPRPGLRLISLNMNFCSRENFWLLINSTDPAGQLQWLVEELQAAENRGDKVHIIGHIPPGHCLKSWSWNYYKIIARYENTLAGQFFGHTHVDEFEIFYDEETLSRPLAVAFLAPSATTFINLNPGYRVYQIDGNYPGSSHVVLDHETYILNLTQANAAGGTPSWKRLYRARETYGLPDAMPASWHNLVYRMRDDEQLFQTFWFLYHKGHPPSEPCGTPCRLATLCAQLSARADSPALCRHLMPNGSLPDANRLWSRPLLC
# Tests used:
# [1] = target: T1, S-SMase; test: S-SMase treatment of [3H]SM-LDL and [3H]SM-emulsions at pH 7.4; format: biochemical; design: endogenous in cells; host or cells: primary HUVEC, 24-h serum-free conditioned medium
# Description: [^3H]SM-emulsions. [^3H]SM-emulsions with a lipid composition similar to human LDL were prepared as follows: 5.4 mg cholesteryl oleate, 0.48 mg triolein, 1.08 mg free cholesterol, 2.04 mg phosphatidylcholine, 0.96 mg sphingomyelin, and 50 μCi [N-palmitoyl-9,10^−3H]sphingomyelin were all added in chloroform to a sonication vial and the solvent completely evaporated by exposure to a stream of nitrogen, followed by the high vacuum of a lyophilizer. The dried lipids were resuspended in 3 mL of buffer containing 150 mM NaCl, 0.3 mM EDTA pH 7.4 and sonicated under a stream of argon at 40° C. until translucent (approximately 90 min) The sonicated material was then centrifuged twice at 15,000×g to pellet any titanium shed from the sonication probe. SM-rich emulsions were prepared exactly as above except that 1.2 mg of phosphatidylcholine and 1.8 mg of SM were used, and sonication time was increased to 120 min. [^3H]SM-emulsions were enriched with apo CIII based on the method of Ahmad et al. (Ahmad et al., 1986). Briefly, [^3H]SM-emulsions (0.4 mL; 182 nmol SM) were incubated with 200 μg apo CIII (22.5 nmol) for 2 h at 40° C. A portion of the emulsions were re-isolated from free ape CIII using ultrafiltration (Clavey et al., 1995) as follows: the crude emulsion-apo CIII mixture was diluted to 2 mL with buffer containing 150 mM NaCl, 0.3 mM EDTA pH 7.4 and ultra filtered and concentrated to 0.2 mL using a CENTRICON® 30 (molecular weight cut-off=30,000); the concentrated emulsions were then diluted to 2 mL and the process was repeated 5 times. [^3H]SM-emulsions run through the same enrichment and re-isolation protocols in the absence of apo CIII served as the control for the experiments in FIG. 11A.
# S-SMase. The source of S-SMase was serum-free conditioned medium from DG44 CHO cells stably transfected with the human acid SMase cDNA (Schissel et al., 1996; Schuchman et al., 1991). […] Cells were plated in 100-mm dishes and cultured for 48 h in DMEM/FBS/PSG. The cells were then changed to low protein serum-free media for 12 h. washed 3 times with PBS, and finally incubated for 18 h in fresh serum-free media (6 mL per 100-mm dish) The “18-h conditioned medium” was then collected, centrifuged at 1000×g to pellet any cells and, except where indicated, ZnCl2 (final concentration=100 μM) was added to fully activate and stabilize S-SMase; this S-SMase-containing conditioned media was then used fresh to treat LDL and lipid emulsions.
# S-SMase Treatment of LDL and Emulsions. The standard incubation mixture consisted of up to 50 μl of sample (LDL or emulsions). […] The ceramide spots were scraped and directly counted to quantify [^3H]ceramide. In all other samples ceramide was determined as described above.
# [2] = tested on: S-SMase secretion by HUVECs; test: Cytokine regulation of S-SMase secretion by HUVECs (SMase activity in conditioned media); format: cell-based, human; conditions: 18 h, interferon-β 1000 units/ml, IL-4 10 ng/ml
# Description: Conditioned media (FIG. 23A) and cell homogenates (FIG. 23B) from these cells were then assayed for SMase activity in the presence or absence of 0.1 mM ZnCl2, respectively.
# The cells were then washed 3 times with PBS and incubated for 24 h in 1 ml fresh serum-free media containing 0.2%6 BSA. This 24-h conditioned medium was collected for SMase assays.
# Harvesting of Cells and Conditioned Media—Following the incubations described above and in the figure legends, cells were placed on ice and the serum-free conditioned media was removed. The cells were washed two times with ice-cold 0.25 M sucrose and scraped into 0.3 ml and 3.0 ml of this sucrose solution per 35-mm and 100-mm dishes, respectively. Unless indicated otherwise, the scraped cells were disrupted by sonication on ice using three 5-second bursts (Branson 450 Sonifier), and the cellular homogenates were assayed for total protein by the method of Lowry et al. (22) and for SMase activity as described below. The conditioned media were spun at 800×g for 5 min to pellet any contaminating cells and concentrated six-fold using a Centriprep 30 (Amicon; Beverly, Mass.) concentrator (molecular weight cut off=30,000).
# Typically, our assay reactions contained approximately 20 μg of cellular homogenate protein and a volume of conditioned media derived from a quantity of cells equivalent to approximately 50 μg of cellular protein.
# [3] = target: T1, S-SMase; test: Zn2+ activation of S-SMase in presence of zinc-metalloproteinase inhibitors; format: biochemical
# Description: SMase Assay—As previously described (Schissel et al., 1996), the standard 200-μl assay mixture consisted of up to 40 μl of sample (conditioned media or homogenized cells; see above) and a volume of assay buffer (0.1 M sodium acetate, pH 5.0) to bring the volume to 160 μl. The reaction was initiated by the addition of 40 μl substrate (50 pmol [^3H]sphingomyelin) in 0.25 M sucrose containing 3% Triton X-100 (final concentration of Triton X-100 in the 200-μl assay mix=0.6%). When added, the final concentrations of EDTA and Zn^2+ were 5 mM and 0.1 mm, respectively, unless indicated otherwise. […] The ceramide spots were scraped and directly counted to quantify [^3H]ceramide. Typically, the assay reactions contained approximately 20 μg of cellular homogenate protein and a volume of conditioned media derived from a quantity of cells equivalent to approximately 50 μg of cellular protein.
# One question was how L- and S-SMase acquire their apparent differences in zinc-dependency. One explanation would be that the secreted form requires a Zn^2+-dependent co-factor. Because many lysosomal enzymes undergo proteolytic activation (Hasilik, 1992), an obvious candidate for a Zn^2+-dependent co-factor would be a zinc-metalloproteinase. The results of five experiments, however, ruled out this possibility. First, Zn^2+-activated S-SMase can be subsequently inactivated by Zn^2+-chelation (see below); reversibility of Zn^2+-induced activation is not consistent with proteolytic activation. […] Third, mammalian zinc-metalloproteinases require Ca^2+ as well as Zn^2+, for activity (Reynolds, 1996), whereas Ca^2+ is not a requirement for the activation of S-SMase (Schissel et al., 1996).
# [4] = target: T2, S-SMase; test: SMase assay of conditioned medium from J774 macrophages (SM micelles, pH 5.0); format: biochemical; conditions: 1,10-phenanthroline alone
# Description: FIGS. 14A-B. Sequential chelation and addition of Zn^2+ to secreted and intracellular SMase. Serum-free conditioned medium and a cell homogenate from J774 macrophages were prepared as described in “Experimental Procedures”. FIG. 14A, conditioned medium (CM) was assayed for SMase activity using 250 nM [^3H]sphingomyelin in Triton X-100 micelles in the presence of either 5 mM EDTA (first bar) or 0.1 mM ZnCl2 (second bar) for 1 h at 37° C. at pH 5.0. An aliquot of the Zn-activated conditioned medium was then incubated for 18 h in the presence of 10 mM EDTA, 10 mM 1,10-phenanthroline, and 0.6% Triton X-100 at 4° C. (EDTA PHNANTH) and then assayed for SMase activity (third bar). After chelation, a portion of this partially inactivated conditioned medium was then dialyzed against zinc-containing buffer C (150 mM NaCl, 10 mM Tris-HCl, 1 mM ZnCl2, 0.6% Triton X-100, pH 7.4) for 18 h and then assayed for SMase activity (fourth bar). FIG. 14B, an aliquot of cell homogenate (Cell Homgn) was assayed for SMase activity in the presence of assay buffer alone (first bar), 5 mM EDTA (second bar), or 0.1 mM ZnCl2 (third bar). Another aliquot of cell homogenate was incubated for 8 h in the presence of 10 mM EDTA, 10 mm 1,10-phenanthroline, and 0.6% Triton X-100 (EDTA PHNANTH) at 4° C. and then assayed for SMase activity (fourth bar). An aliquot of this chelator-treated cell homogenate was then dialyzed against zinc-containing buffer C for 18 h and then assayed for SMase activity (fifth bar).
# (§1) SMase Assay—As previously described (Schissel et al., 1996), the standard 200-μl assay mixture consisted of up to 40 μl of sample (conditioned media or homogenized cells; see above) and a volume of assay buffer (0.1 M sodium acetate, pH 5.0) to bring the volume to 160 μl. […] The ceramide spots were scraped and directly counted to quantify [^3H]ceramide. Typically, the assay reactions contained approximately 20 μg of cellular homogenate protein and a volume of conditioned media derived from a quantity of cells equivalent to approximately 50 μg of cellular protein.
# [5] = target: T3, L-SMase; test: SMase assay of cell homogenate from J774 macrophages (SM micelles, pH 5.0); format: biochemical; conditions: 1,10-phenanthroline alone
# Description: FIGS. 14A-B. Sequential chelation and addition of Zn^2+ to secreted and intracellular SMase. Serum-free conditioned medium and a cell homogenate from J774 macrophages were prepared as described in “Experimental Procedures”. FIG. 14A, conditioned medium (CM) was assayed for SMase activity using 250 nM [^3H]sphingomyelin in Triton X-100 micelles in the presence of either 5 mM EDTA (first bar) or 0.1 mM ZnCl2 (second bar) for 1 h at 37° C. at pH 5.0. An aliquot of the Zn-activated conditioned medium was then incubated for 18 h in the presence of 10 mM EDTA, 10 mM 1,10-phenanthroline, and 0.6% Triton X-100 at 4° C. (EDTA PHNANTH) and then assayed for SMase activity (third bar). […]
# as §1
molecule,measurement,setting,value
lysophosphatidylcholine,stimulation of S-SMase hydrolysis of [3H]SM-LDL,[1]; exogenously added,2-3 fold
IL-4: human recombinant interleukin-4,accumulation of S-SMase in conditioned media (qualitative),[2],no effect
apo CIII: human native apolipoprotein CIII,S-SMase hydrolysis of [3H]SM-emulsions versus control emulsions,[1]; emulsion-bound + free apo CIII,two-fold greater
same,S-SMase hydrolysis of [3H]SM-emulsions versus control emulsions,[1]; emulsion-bound apo CIII only,approximately ten-fold more
HS—CH2—R—CH(CH2—CH(CH3)2)—C)-Phe-Ala-NH2,effect on ability of Zn2+ to activate S-SMase,[3],did not affect
"c1cnc2c(c1)ccc1cccnc12 [1,10-phenanthroline]",inhibition of S-SMase,[4],does not inhibit
same,inhibition of L-SMase,[5],does not inhibit
"TIMP-1: tissue inhibitor of metalloproteinase-1, inhibitor of zinc-metalloproteinases",effect on ability of Zn2+ to activate S-SMase,[3],did not affect
HO—NH—CO—CH2—CH(CH2CH(CH3)2)—C)-Nal-Ala-NH—CH2—CH2—NH2,effect on ability of Zn2+ to activate S-SMase,[3],did not affect
"sPLA2: human recombinant nonpancreatic soluble PLA2 (protein, UniProt P14555 21-144, looked up) Phospholipase A2, membrane …: NLVNFHRMIKLTTGKEAALSYGFYGCHCGVGGRGSPKDATDRCCVTHDCCYKRLEKRGCGTKFLSYKFSNSGSRITCAKQDSCRSQLCECDKAAATCFARNKTTYNKKYQYYSNKHCRGSTPRC",S-SMase hydrolysis of [3H]SM-LDL after treating the LDL with sPLA2,[1]; LDL pretreated 14 h at 37° C.,markedly enhanced
